# In patent publication US20220322667A1, “MICROBIOCIDAL USE” (DSM IP ASSETS B.V., priority 2019, published 2022):
# What was measured:
# Experiment in all cases: Antimicrobial challenge test in analogy to NF EN ISO 11930
# Format in all cases: cell-based
# Candida albicans = tested on: Candida albicans
# Experimental: (§1) The antimicrobial efficacy was assessed in analogy to the regulatory challenge test method (NF EN IS011930). Thus, mixtures of the respective active(s) with physiological serum with 0.85 wt.-% NaCl in the concentrations as outlined below are prepared under sterile conditions. Controls were also prepared under sterile conditions. The control as well as the mixtures were then deposed in 96-deep well plates (1.6 ml/well). The wells were contaminated with the respective bacterial or the fungal strains at 2.5*10^5 to 5.6*10^5 cfu/ml for the bacteria and 1*10^4 to 2.5*10^4 cfu/ml for the fungi to obtain the initial contamination as outlined below. After the contamination, each well was thoroughly mixed to ensure a homogeneous distribution of microbes. Then each plate was incubated at 22° C. for 24 h. The counting of the (remaining) population is carried out 24 h after contamination. Then, the average log reduction is calculated [−log 10{(value inoculum)/(value sample)}] which is represented in tables 1-5.
# Aspergillus brasiliensis = details: 0.3 wt.-% DBO, 24 h at 22° C.
# Experimental: as §1, with “The wells were contaminated with the respective bacterial or the fungal strains at 2.5*10^5 to 5.6*10^5 cfu/ml for the bacteria and 1*10^4 to 2.5*10^4 cfu/ml for the fungi to obtain the initial contamination as outlined below.” left out
# Staphylococcus aureus = details: 0.3 wt.-% HAP, 24 h
# Experimental: as §1
# Escherichia coli = details: 0.2 wt.-% Sodium Benzoate, 24 h
# Experimental: as §1
smiles,measurement,setting,value
"c1ccc2oc(-c3ccc(-c4nc5ccccc5o4)cc3)nc2c1 [DBO, 1,4-di(benzoxazol-2′-yl)benzene]",Log reduction,"Candida albicans; 0.3 wt.-% DBO, 24 h at 22° C.",−0.51
same,24 h colony count,"Candida albicans; 0.3 wt.-% DBO, 24 h at 22° C., inoculum 32000 cfu/ml",10000 cfu/ml
same,Log reduction,Aspergillus brasiliensis,−2.05
same,24 h colony count,Aspergillus brasiliensis; inoculum 45000 cfu/ml,400 cfu/ml
"CC(=O)c1ccc(O)cc1 [HAP, 1-(4-hydroxyphenyl)-ethanone]",Log reduction,Staphylococcus aureus,−1.16
same,Staphylococcus aureus colony count,Staphylococcus aureus; 550000 cfu/ml at 0 h,70000 cfu/ml
"OCCCO [PDO, 1,3-propanediol]",Log reduction,"Candida albicans; 1.0 wt.-% PDO, 24 h",−0.24
same,Candida albicans colony count,"Candida albicans; 1.0 wt.-% PDO, 24 h, 70000 cfu/ml at 0 h",40000 cfu/ml
"O=C([O-])c1ccccc1.[Na+] [Sodium Benzoate, sodium benzoate]",Log reduction,Escherichia coli,+0.40
same,Escherichia coli colony count,Escherichia coli; 400000 cfu/ml at 0 h,1000000 cfu/ml
